This passage reports IC50 results from US20260022142A1, “MACROCYCLIC IMMUNOMODULATORS” (Bristol-Myers Squibb Company, priority 2022, published 2026).

Bridge positions count the residues as written; N and C are the ends. Square brackets hold non-standard residues; d marks the D form. Peptide text beside a SMILES is read from it. * marks the point of attachment. Phe(4-COOH) = N[C@@H](Cc1ccc(C(=O)O)cc1)C(=O)O; Bip = N[C@@H](Cc1ccc(-c2ccccc2)cc1)C(=O)O; NH(CH2)14COOH = O=C(O)CCCCCCCCCCCCCCN*; Phe(3-Me) = Cc1cccc(C[C@H](N)C(=O)O)c1; NH(CH2)12COOH = O=C(O)CCCCCCCCCCCCN*; Val(3-OH) = CC(C)(O)[C@H](N)C(=O)O; 4Pal = N[C@@H](Cc1ccncc1)C(=O)O; Cha = N[C@@H](CC1CCCCC1)C(=O)O; Carboxymethyl = O=C(O)C*; Orn = NCCC[C@H](N)C(=O)O; Aun = NCCCCCCCCCCC(=O)O; Dab = NCC[C@H](N)C(=O)O; Nva = CCC[C@H](N)C(=O)O; Dap = NC[C@H](N)C(=O)O; AEEA = NCCOCCOCC(=O)O

The target in the assay is T1, PD-1/PD-L1 interaction (PE-labeled human PD-L1-Ig binding to Jurkat cell line over-expressing human PD-1) (Homo sapiens, UniProt Q15116).
T1 construct: expressed in transfected cells; host or cells: Jurkat
T1 sequence (Q15116 25-288): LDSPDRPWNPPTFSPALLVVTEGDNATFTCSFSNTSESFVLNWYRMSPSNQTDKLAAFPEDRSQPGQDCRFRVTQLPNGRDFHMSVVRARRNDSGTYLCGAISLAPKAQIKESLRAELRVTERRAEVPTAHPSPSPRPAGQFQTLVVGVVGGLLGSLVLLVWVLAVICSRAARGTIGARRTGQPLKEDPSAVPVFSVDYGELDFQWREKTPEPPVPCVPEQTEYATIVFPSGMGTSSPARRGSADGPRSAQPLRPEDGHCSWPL
The assay can be described thus: Jurkat-PD-1 Cell Binding High-Content Screening Assay (CBA). The class given is cell-based. The conditions noted are these: Jurkat cell line over-expressing human PD-1; PE-labeled PD-L1-Ig 20 nM final; read-out: Jurkat hPD1-PDL1 IC50. Put shortly: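 Binding of fluorescent PD-L1-Ig (phycoerythrin on Ig tag, 20 nM final, 1 h) measured by high-content imaging of fixed, Hoechst-counterstained Jurkat-hPD-1 cells. Compound added 2 h at 37° C beforehand, in DMEM with 10% fetal calf serum.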
Consider `Cc1cccc(C[C@@H]2NC(=O)[C@H](CC(=O)O)NC(=O)[C@H](Cc3ccc(OCC(=O)O)cc3)NC(=O)[C@H](CN)NC(=O)CSC[C@@H](C(=O)N[C@@H](CCN)C(=O)NCCOCCOCC(=O)NCCCCCCCCCCC(=O)O)NC(=O)[C@H](CCCN)NC(=O)[C@H](C(C)C)NC(=O)[C@H](CC3CCCCC3)NC(=O)[C@H](CCN)NC(=O)[C@@H](CC(C)C)NC(=O)[C@H](CCCN)NC(=O)[C@H](Cc3ccc(OCC(=O)O)cc3)NC(=O)[C@H](Cc3ccc(-c4ccccc4)cc3)NC(=O)[C@H](Cc3ccc(O)cc3)NC2=O)c1` [Compound 2859] ({CH2CO}-[Dap]Y(Carboxymethyl)D[Phe(3-Me)]Y[Bip]Y(Carboxymethyl)[Orn][dL][Dab][Cha]V[Orn]C[Dab][AEEA][Aun]-OH; thioether N-14), for which the 50% inhibitory concentration (IC50) is 7.8 nM.

As for `Cc1cccc(C[C@@H]2NC(=O)[C@H](CC(=O)O)NC(=O)[C@H](Cc3ccc(OCC(=O)O)cc3)NC(=O)[C@H](CN)NC(=O)CSC[C@@H](C(=O)N[C@@H](CCN)C(=O)NCCOCCOCC(=O)NCCCCCCCCCCC(=O)O)NC(=O)[C@H](CCCN)NC(=O)[C@H](C(C)C)NC(=O)[C@H](CC3CCCCC3)NC(=O)[C@H](CCN)NC(=O)[C@@H](CC(C)C)NC(=O)[C@H](CCCN)NC(=O)[C@H](Cc3ccc(OCC(=O)O)cc3)NC(=O)[C@H](Cc3ccc(-c4ccccc4)cc3)NC(=O)[C@H](Cc3ccc(OCC(=O)O)cc3)NC2=O)c1` [Compound 2860] ({CH2CO}-[Dap]Y(Carboxymethyl)D[Phe(3-Me)]Y(Carboxymethyl)[Bip]Y(Carboxymethyl)[Orn][dL][Dab][Cha]V[Orn]C[Dab][AEEA][Aun]-OH; thioether N-14), the half-maximal inhibitory concentration (IC50) worked out at 11.2 nM.

As for `Cc1cccc(C[C@@H]2NC(=O)[C@H](CC(=O)O)NC(=O)[C@H](Cc3ccc(OCC(=O)O)cc3)NC(=O)[C@H](Cc3ccncc3)NC(=O)CSC[C@@H](C(=O)N[C@@H](CCN)C(=O)NCCOCCOCC(=O)NCCCCCCCCCCC(=O)O)NC(=O)[C@H](CO)NC(=O)[C@H](C(C)(C)O)NC(=O)[C@H](CC3CCCCC3)NC(=O)[C@H](CCN)NC(=O)[C@@H](CC(C)C)NC(=O)[C@H](CCCN)NC(=O)[C@H](Cc3ccc(C(=O)O)cc3)NC(=O)[C@H](Cc3ccc(-c4ccccc4)cc3)NC(=O)[C@H](Cc3ccc(C(=O)O)cc3)NC2=O)c1` [Compound 2862] ({CH2CO}-[4Pal]Y(Carboxymethyl)D[Phe(3-Me)][Phe(4-COOH)][Bip][Phe(4-COOH)][Orn][dL][Dab][Cha][Val(3-OH)]SC[Dab][AEEA][Aun]-OH; thioether N-14), the IC50 was determined as 228 nM.

Take `Cc1cccc(C[C@@H]2NC(=O)[C@H](CC(=O)O)NC(=O)[C@H](Cc3ccc(OCC(=O)O)cc3)NC(=O)[C@H](CCCNC(=N)N)NC(=O)CSC[C@@H](C(=O)N[C@@H](CCN)C(=O)NCCCCCCCCCCC(=O)O)NC(=O)[C@H](CCC(=O)O)NC(=O)[C@H](C(C)(C)O)NC(=O)[C@H](CC3CCCCC3)NC(=O)[C@H](CCN)NC(=O)[C@@H](CC(C)C)NC(=O)[C@H](CCCN)NC(=O)[C@H](Cc3ccc(OCC(=O)O)cc3)NC(=O)[C@H](Cc3ccc(-c4ccccc4)cc3)NC(=O)[C@H](Cc3ccc(OCC(=O)O)cc3)NC2=O)c1` [Compound 2863] ({CH2CO}-RY(Carboxymethyl)D[Phe(3-Me)]Y(Carboxymethyl)[Bip]Y(Carboxymethyl)[Orn][dL][Dab][Cha][Val(3-OH)]EC[Dab][Aun]-OH; thioether N-14): the IC50 stood at 8.7 nM.

For `Cc1cccc(C[C@@H]2NC(=O)[C@H](CC(=O)O)NC(=O)[C@H](Cc3ccc(OCC(=O)O)cc3)NC(=O)[C@H](CCCNC(=N)N)NC(=O)CSC[C@@H](C(=O)N[C@@H](CCN)C(=O)NCCCCCCCCCCC(=O)O)NC(=O)[C@H](CC(=O)O)NC(=O)[C@H](C(C)(C)O)NC(=O)[C@H](CC3CCCCC3)NC(=O)[C@H](CCN)NC(=O)[C@@H](CC(C)C)NC(=O)[C@H](CCCN)NC(=O)[C@H](Cc3ccc(OCC(=O)O)cc3)NC(=O)[C@H](Cc3ccc(-c4ccccc4)cc3)NC(=O)[C@H](Cc3ccc(OCC(=O)O)cc3)NC2=O)c1` [Compound 2864] ({CH2CO}-RY(Carboxymethyl)D[Phe(3-Me)]Y(Carboxymethyl)[Bip]Y(Carboxymethyl)[Orn][dL][Dab][Cha][Val(3-OH)]DC[Dab][Aun]-OH; thioether N-14), the 50% inhibitory concentration (IC50) stood at 3.3 nM.

Consider `CCC[C@@H]1NC(=O)CSC[C@@H](C(=O)N[C@@H](CCN)C(=O)NCCOCCOCC(=O)NCCOCCOCC(=O)NCCCCCCCCCCCCCCC(=O)O)NC(=O)[C@H](CO)NC(=O)[C@H](C(C)(C)O)NC(=O)[C@H](CC2CCCCC2)NC(=O)[C@H](CCN)NC(=O)[C@@H](CC(C)C)NC(=O)[C@H](CCCN)NC(=O)[C@H](Cc2ccc(OCC(=O)O)cc2)NC(=O)[C@H](Cc2ccc(-c3ccccc3)cc2)NC(=O)[C@H](Cc2ccc(OCC(=O)O)cc2)NC(=O)[C@H](Cc2cccc(C)c2)NC(=O)[C@H](CC(=O)O)NC(=O)[C@H](Cc2ccc(OCC(=O)O)cc2)NC1=O` [Compound 2866] ({CH2CO}-[Nva]Y(Carboxymethyl)D[Phe(3-Me)]Y(Carboxymethyl)[Bip]Y(Carboxymethyl)[Orn][dL][Dab][Cha][Val(3-OH)]SC[Dab][AEEA][AEEA]-{NH(CH2)14COOH}; thioether N-14), for which the IC50 was determined as 101 nM.

Regarding `CCC[C@@H]1NC(=O)CSC[C@@H](C(=O)N[C@@H](CCN)C(=O)NCCOCCOCC(=O)NCCCCCCCCCCCCC(=O)O)NC(=O)[C@H](CO)NC(=O)[C@H](C(C)(C)O)NC(=O)[C@H](CC2CCCCC2)NC(=O)[C@H](CCN)NC(=O)[C@@H](CC(C)C)NC(=O)[C@H](CCCN)NC(=O)[C@H](Cc2ccc(OCC(=O)O)cc2)NC(=O)[C@H](Cc2ccc(-c3ccccc3)cc2)NC(=O)[C@H](Cc2ccc(OCC(=O)O)cc2)NC(=O)[C@H](Cc2cccc(C)c2)NC(=O)[C@H](CC(=O)O)NC(=O)[C@H](Cc2ccc(OCC(=O)O)cc2)NC1=O` [Compound 2867] ({CH2CO}-[Nva]Y(Carboxymethyl)D[Phe(3-Me)]Y(Carboxymethyl)[Bip]Y(Carboxymethyl)[Orn][dL][Dab][Cha][Val(3-OH)]SC[Dab][AEEA]-{NH(CH2)12COOH}; thioether N-14), the IC50 came out at 11.1 nM.

For the compound `CCC[C@@H]1NC(=O)CSC[C@@H](C(=O)N[C@@H](CCN)C(=O)NCCOCCOCC(=O)NCCCCCCCCCCCCCCC(=O)O)NC(=O)[C@H](CO)NC(=O)[C@H](C(C)(C)O)NC(=O)[C@H](CC2CCCCC2)NC(=O)[C@H](CCN)NC(=O)[C@@H](CC(C)C)NC(=O)[C@H](CCCN)NC(=O)[C@H](Cc2ccc(OCC(=O)O)cc2)NC(=O)[C@H](Cc2ccc(-c3ccccc3)cc2)NC(=O)[C@H](Cc2ccc(OCC(=O)O)cc2)NC(=O)[C@H](Cc2cccc(C)c2)NC(=O)[C@H](CC(=O)O)NC(=O)[C@H](Cc2ccc(OCC(=O)O)cc2)NC1=O` [Compound 2868] ({CH2CO}-[Nva]Y(Carboxymethyl)D[Phe(3-Me)]Y(Carboxymethyl)[Bip]Y(Carboxymethyl)[Orn][dL][Dab][Cha][Val(3-OH)]SC[Dab][AEEA]-{NH(CH2)14COOH}; thioether N-14), the IC50 amounted to 467 nM.

What is called IC50 is the concentration at which inhibition is half-maximal.
